Test results taken from patent US11945806B2, “Stabilization of amyloidogenic immunoglobulin light chains” (The Scripps Research Institute, priority 2019, dated 2024).

Target: WIL-FL (Homo sapiens, UniProt P01721)
Assay: Unlabeled LC Protease Sensitivity Assay (proteinase K)
Assay type: biochemical
Settings: small molecule 10 μM, WIL-FL 5 μM, proteinase K 50 nM, 2 hours at 37° C.
Outline: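 Compound at 10 μM (1% DMSO) is mixed with 5 μM WIL-FL and 50 nM proteinase K in PBS pH 7.4/0.02% Pluronic F-127, 37 °C, 2 h, then quenched with PMSF. Remaining protein measured by SEC-UPLC peak area at 280 nm and expressed as fold protection relative to vehicle and no-protease controls.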

| Structure (SMILES) | Protection (fold protection of LC from protease) |
| --- | --- |
| Cc1cc(=O)oc2cc(C(=O)Nc3ccnc4ccccc34)ccc12 [Compound 234, 4-methyl-2-oxo-N-(quinolin-4-yl)-2H-chromene-7-carboxamide] | A (A < 0.3)) |
| Cc1cc(=O)oc2cc(C(=O)Nc3ccc4ncccc4c3)ccc12 [Compound 235, 4-methyl-2-oxo-N-(quinolin-6-yl)-2H-chromene-7-carboxamide] | A (A < 0.3)) |
| Cc1cc(=O)oc2cc(C(=O)NCc3c[nH]c4ccccc34)ccc12 [Compound 236, N-((1H-indol-3-yl)methyl)-4-methyl-2-oxo-2H-chromene-7-carboxamide] | A (A < 0.3)) |
| Cc1cc(=O)oc2cc(C(=O)NCc3ccc4[nH]ccc4c3)ccc12 [Compound 237, N-((1H-indol-5-yl)methyl)-4-methyl-2-oxo-2H-chromene-7-carboxamide] | A (A < 0.3)) |
| Cc1cc(=O)oc2cc(C(=O)Nc3ccc4[nH]cnc4c3)ccc12 [Compound 238, N-(1H-benzo[d]imidazol-6-yl)-4-methyl-2-oxo-2H-chromene-7-carboxamide] | A (A < 0.3)) |
| Cc1cc(=O)oc2cc(C(=O)Nc3ccc4scnc4c3)ccc12 [Compound 239, N-(benzo[d]thiazol-5-yl)-4-methyl-2-oxo-2H-chromene-7-carboxamide] | A (A < 0.3)) |
| C=CCNc1ccc2c(C)cc(=O)oc2c1 [Compound 240, 7-(allylamino)-4-methyl-2H-chromen-2-one] | A (A < 0.3)) |
| CCCN(CCC)c1ccc2c(C)cc(=O)oc2c1 [Compound 241, 7-(dipropylamino)-4-methyl-2H-chromen-2-one] | A (A < 0.3)) |
| CCCNc1ccc2c(C)cc(=O)oc2c1 [Compound 242, 4-methyl-7-(propylamino)-2H-chromen-2-one] | A (A < 0.3)) |
| C=C(C)CN(CC(=C)C)c1ccc2c(C)cc(=O)oc2c1 [Compound 243, 7-(bis(2-methylallyl)amino)-4-methyl-2H-chromen-2-one] | A (A < 0.3)) |
| C=C(C)CNc1ccc2c(C)cc(=O)oc2c1 [Compound 244, 4-methyl-7-((2-methylallyl)amino)-2H-chromen-2-one] | A (A < 0.3)) |
| Cc1cc(=O)oc2cc(N(CC3CC3)CC3CC3)ccc12 [Compound 245, 7-(bis(cyclopropylmethyl)amino)-4-methyl-2H-chromen-2-one] | A (A < 0.3)) |
| Cc1cc(=O)oc2cc(NCC3CC3)ccc12 [Compound 246, 7-((cyclopropylmethyl)amino)-4-methyl-2H-chromen-2-one] | A (A < 0.3)) |
| C=CCCNc1ccc2c(C)cc(=O)oc2c1 [Compound 247, 7-(but-3-en-1-ylamino)-4-methyl-2H-chromen-2-one] | A (A < 0.3)) |
| C#CCN(CC#C)c1ccc2c(C)cc(=O)oc2c1 [Compound 248, 7-(di(prop-2-yn-1-yl)amino)-4-methyl-2H-chromen-2-one] | B (3 ≤ B < 0.6) |
| C#CCNc1ccc2c(C)cc(=O)oc2c1 [Compound 249, 4-methyl-7-(prop-2-yn-1-ylamino)-2H-chromen-2-one] | A (A < 0.3)) |
| Cc1cc(=O)oc2cc(N(CCCF)CCCF)ccc12 [Compound 250, 7-(bis(3-fluoropropyl)amino)-4-methyl-2H-chromen-2-one] | A (A < 0.3)) |
| Cc1cc(=O)oc2cc(NCCCF)ccc12 [Compound 251, 7-((3-fluoropropyl)amino)-4-methyl-2H-chromen-2-one] | A (A < 0.3)) |
| C=CCN(C)c1ccc2c(C)cc(=O)oc2c1 [Compound 252, 7-(allyl(methyl)amino)-4-methyl-2H-chromen-2-one] | A (A < 0.3)) |
| CCCN(C)c1ccc2c(C)cc(=O)oc2c1 [Compound 253, 4-methyl-7-(methyl(propyl)amino)-2H-chromen-2-one] | A (A < 0.3)) |
| C=C(C)CN(C)c1ccc2c(C)cc(=O)oc2c1 [Compound 254, 4-methyl-7-(methyl(2-methylallyl)amino)-2H-chromen-2-one] | A (A < 0.3)) |
| Cc1cc(=O)oc2cc(N(C)CC3CC3)ccc12 [Compound 255, 7-((cyclopropylmethyl)(methyl)amino)-4-methyl-2H-chromen-2-one] | A (A < 0.3)) |
| C=CCCN(C)c1ccc2c(C)cc(=O)oc2c1 [Compound 256, 7-(but-3-en-1-yl(methyl)amino)-4-methyl-2H-chromen-2-one] | A (A < 0.3)) |

| Structure (SMILES) | Protection (fold protection of LC from protease) |
| --- | --- |
| C#CCN(C)c1ccc2c(C)cc(=O)oc2c1 [Compound 257, 4-methyl-7-(methyl(prop-2-yn-1-yl)amino)-2H-chromen-2-one] | A (A < 0.3)) |
| Cc1cc(=O)oc2cc(N(C)CCCF)ccc12 [Compound 258, 7-((3-fluoropropyl)(methyl)amino)-4-methyl-2H-chromen-2-one] | A (A < 0.3)) |
| C#CCN(CC=C)c1ccc2c(C)cc(=O)oc2c1 [Compound 259, 7-(allyl(prop-2-yn-1-yl)amino)-4-methyl-2H-chromen-2-one] | A (A < 0.3)) |
| C#CCN(CCC)c1ccc2c(C)cc(=O)oc2c1 [Compound 260, 4-methyl-7-(prop-2-yn-1-yl(propyl)amino)-2H-chromen-2-one] | A (A < 0.3)) |
| C#CCN(CC(=C)C)c1ccc2c(C)cc(=O)oc2c1 [Compound 261, 4-methyl-7-((2-methylallyl)(prop-2-yn-1-yl)amino)-2H-chromen-2-one] | A (A < 0.3)) |
| C#CCN(CC1CC1)c1ccc2c(C)cc(=O)oc2c1 [Compound 262, 7-((cyclopropylmethyl)(prop-2-yn-1-yl)amino)-4-methyl-2H-chromen-2-one] | A (A < 0.3)) |
| C#CCN(CCC=C)c1ccc2c(C)cc(=O)oc2c1 [Compound 263, 7-(but-3-en-1-yl(prop-2-yn-1-yl)amino)-4-methyl-2H-chromen-2-one] | A (A < 0.3)) |
| C#CCN(CCCF)c1ccc2c(C)cc(=O)oc2c1 [Compound 264, 7-((3-fluoropropyl)(prop-2-yn-1-yl)amino)-4-methyl-2H-chromen-2-one] | A (A < 0.3)) |
| Cc1cc(=O)oc2cc(NCCC(F)(F)F)ccc12 [Compound 265, 4-methyl-7-((3,3,3-trifluoropropyl)amino)-2H-chromen-2-one] | A (A < 0.3)) |
| Cc1cc(=O)oc2cc(N(C)C)ccc12 [Compound 266, 7-(dimethylamino)-4-methyl-2H-chromen-2-one] | A (A < 0.3)) |
| C#CCNC(=O)c1ccc2c(C)cc(=O)oc2c1 [Compound 267, 4-methyl-2-oxo-N-(prop-2-yn-1-yl)-2H-chromene-7-carboxamide] | A (A < 0.3)) |
| CCN(C)c1ccc2c(C)cc(=O)oc2c1 [Compound 268, 7-(ethyl(methyl)amino)-4-methyl-2H-chromen-2-one] | A (A < 0.3)) |
| Cc1cc(=O)oc2cc(NCC#N)ccc12 [Compound 269, 2-((4-methyl-2-oxo-2H-chromen-7-yl)amino)acetonitrile] | A (A < 0.3)) |
| CCNc1ccc2c(C)cc(=O)oc2c1 [Compound 270, 7-(ethylamino)-4-methyl-2H-chromen-2-one] | A (A < 0.3)) |
| C#CCN(CC)c1ccc2c(C)cc(=O)oc2c1 [Compound 271, 7-(ethyl(prop-2-yn-1-yl)amino)-4-methyl-2H-chromen-2-one] | A (A < 0.3)) |
| CCN(CC#N)c1ccc2c(C)cc(=O)oc2c1 [Compound 272, 2-(ethyl(4-methyl-2-oxo-2H-chromen-7-yl)amino)acetonitrile] | A (A < 0.3)) |
| CCN(CCF)c1ccc2c(C)cc(=O)oc2c1 [Compound 273, 7-(ethyl(2-fluoroethyl)amino)-4-methyl-2H-chromen-2-one] | A (A < 0.3)) |
| CCN(c1ccc2c(C)cc(=O)oc2c1)C(C)C [Compound 274, 7-(ethyl(isopropyl)amino)-4-methyl-2H-chromen-2-one] | A (A < 0.3)) |
| CCCN(CC)c1ccc2c(C)cc(=O)oc2c1 [Compound 275, 7-(ethyl(propyl)amino)-4-methyl-2H-chromen-2-one] | A (A < 0.3)) |
| CCN(CC)c1ccc2c(C)c(CCNC(=O)NCc3ccccn3)c(=O)oc2c1 [Compound 276, 1-(2-(7-(diethylamino)-4-methyl-2-oxo-2H-chromen-3-yl)ethyl)-3-(pyridin-2-ylmethyl)urea] | A (A < 0.3)) |
| CCN(CC)c1ccc2c(C)c(CCNC(=O)NCc3ccncc3)c(=O)oc2c1 [Compound 277, 1-(2-(7-(diethylamino)-4-methyl-2-oxo-2H-chromen-3-yl)ethyl)-3-(pyridin-4-ylmethyl)urea] | B (3 ≤ B < 0.6) |
| CCN(CC)c1ccc2c(C)c(CCNC(=O)NCc3ccccc3)c(=O)oc2c1 [Compound 278, 1-benzyl-3-(2-(7-(diethylamino)-4-methyl-2-oxo-2H-chromen-3-yl)ethyl)urea] | C (C ≥ 0.6) |
| CCN(CC)c1ccc2c(C)c(CCNC(=O)NCc3ccc4[nH]ccc4c3)c(=O)oc2c1 [Compound 279, 1-((1H-indol-5-yl)methyl)-3-(2-(7-(diethylamino)-4-methyl-2-oxo-2H-chromen-3-yl)ethyl)urea] | A (A < 0.3)) |
